Test results as given in PMC12748266, “Testing antimicrobial peptides inhibiting protein synthesis in living E. coli and K. pneumoniae using bio-orthogonal non-canonical amino-acid tagging” (Frontiers in Microbiology, 2025).
Values after ≈ are worked out from the molar mass of the structure shown. No end group written: not given here.

How the values were obtained:
E. coli ATCC 25922 = experiment: BONCAT: HPG incorporation into newly synthesized proteins, flow cytometry; type: cell-based, Escherichia coli; details: compound at MIC; for Fluorescence Intensity (% of Control): 10 min pre-incubation then 30 min HPG, untreated = 100%, mean, n ≥ 3; for Decrease in fluorescence compared to untreated bacteria: 40 min total incubation (10 min + 30 min HPG)
Protocol: We used a modified protocol from [Lindivat et al. (2020)]. Briefly, overnight cultures of E. coli ATCC 25922 or K. pneumoniae ATCC 700603, prepared as described above, were diluted to a final concentration of 5×10^6 CFU/mL and allowed to adjust for 30 min at 37 °C. The culture was then incubated at 37 °C in the dark for 10 or 30 min in the presence or absence of each peptide or antibiotic at various concentrations, with a final volume of 1 mL. At this point, only in certain specified experimental assays, the compounds were removed from the supernatant by centrifugation (16,000 × g for 5 min) and bacteria were washed and resuspended in fresh supplemented M9 medium. Then, 32 μL of a 500 μM homopropargylglycine (HPG) solution were added to each sample, resulting in a final concentration of 16 μM in a finale volume of 1 mL. Also included in each assay were two untreated controls containing only bacteria and bacteria treated with 16 μM HPG alone, respectively. All samples were then incubated at 37 °C in the dark for 30 min. After incubation, samples were washed once with 1X filtered Phosphate Buffered Saline (PBS) (centrifuged at 16,000 x g for 5 min) and resuspended in PBS. After washing, samples were fixed with formaldehyde (Sigma Aldrich, USA) to a final concentration of 3% in 1 mL for 1 h at 25 °C. Subsequently, the samples were centrifuged at 16,000 x g for 5 min and resuspended in 1 mL of PBS. If not analysed immediately, the fixed samples were stored at 4 °C prior to performing the click chemistry reaction. Samples were centrifugated at 16,000 x g for 5 min and bacteria cells were dehydrated by ethanol that was added sequentially to achieve a final concentration of 50% (v/v) (3 min of incubation), 80% (v/v) (3 min of incubation), and 95% (v/v) (3 min of incubation). After dehydration, the samples were centrifugated (16,000 × g, 5 min) and resuspended in PBS. For cell analysis by SDS-PAGE, the following variations were implemented: bacterial cells were diluted in supplemented M9 medium to a final density of ~ 1 × 10^9 CFU/mL, and HPG was added to the samples at a final concentration of 160 μM. Bacteria were incubated with HPG for 0, 15, 30, 60, or 120 min at 37 °C in the dark.
The click reaction was carried out according to [Rostovtsev et al. (2002)]. 15 μL of a pre-mix solution (prepared as described above) were added to each sample containing fixed bacteria that had incorporated HPG (30 μL of pre-mix solution in case of samples prepared for SDS-PAGE analysis), resulting in the following final concentrations in each sample: 0.1 mM copper sulfate, 0.5 mM Tris (3-hydroxypropyltriazolylmethyl)amine (THPTA), and 2.5 μM Alexa Fluor azide 488. Additionally, 50 μL of freshly prepared 100 mM sodium ascorbate and 50 μL of 100 mM aminoguanidine were added (100 μL in case of samples prepared for SDS-PAGE analysis), bringing the final volume to 1 mL. The samples were gently inverted once to mix and incubated for 30 min in the dark at 25 °C. Finally, each sample was washed with PBS once (centrifuged at 16,000 × g for 5 min) and resuspended in 1 mL PBS.
An overnight culture of E. coli ATCC 25922, or of K. pneumoniae ATCC 700603, prepared as described above, was diluted to a final concentration of 5 × 10^6 CFU/mL and allowed to adjust for 30 min at 37 °C under shaking. Membrane permeabilization of bacteria was then assessed by incubating bacteria at 37 °C, in a final volume of 1 mL, with varying concentrations of each peptide or antibiotic used for the BONCAT assay. 5 min before the ending of the selected incubation time (40 min), propidium iodide probe was added to the samples to a final concentration of 10 μg/mL before analysis using a flow cytometer. A positive control consisted of E. coli cells dehydrated with ethanol (as described above), while untreated cells were used as negative control. The fluorescence of untreated cells was used to establish the gating for positive PI-stained cells. […]

[1] = test system: K. pneumoniae ATCC 700603; experiment: Cell membrane permeabilization, propidium iodide flow cytometry; type: cell-based, Klebsiella pneumoniae; details: compound at its MIC, 40 min, 5 × 10^6 CFU/mL, supplemented M9; mean of n = 3
Protocol: An overnight culture of E. coli ATCC 25922, or of K. pneumoniae ATCC 700603, prepared as described above, was diluted to a final concentration of 5 × 10^6 CFU/mL and allowed to adjust for 30 min at 37 °C under shaking. Membrane permeabilization of bacteria was then assessed by incubating bacteria at 37 °C, in a final volume of 1 mL, with varying concentrations of each peptide or antibiotic used for the BONCAT assay. 5 min before the ending of the selected incubation time (40 min), propidium iodide probe was added to the samples to a final concentration of 10 μg/mL before analysis using a flow cytometer. A positive control consisted of E. coli cells dehydrated with ethanol (as described above), while untreated cells were used as negative control. The fluorescence of untreated cells was used to establish the gating for positive PI-stained cells. Fixed bacterial cells, subjected to the click chemistry reaction to link the Alexa Fluor azide 488 probe, were analysed by flow cytometry and, among the gates-selected ones, only those that tested positive for Propidium Iodide, and thus permeabilized, were considered for the calculation of the mean fluorescence intensity (MFI) of the Alexa Fluor azide 488.
Samples were analyzed by an Attune NxT® (ThermoFisher) equipped with a blue laser (488 nm) and photomultiplier tubes (PMTs) BL1 (525/50) and BL3 (695/40) to collect fluorescence. All parameters were set in logarithmic scale and the signals were recorded as Area. Forward scattering (FSC) was set to 300 mV, side scattering (SSC) to 350 mV and thresholds to 0.2 for FSC and 0.5 for SSC. The compensation matrix was performed according to the tool software. Hierarchical gates and acquisition flow rate (200 μL/min) were set to avoid coincident events. The files were saved as FCS 3.1 and analysed by FCS Express De Novo software v7. Flow cytometry data are presented as means ± SD from three independent experiments (n = 3).

[2] = test system: K. pneumoniae ATCC 700603; experiment: microbe, parasite or virus in culture; type: cell-based, Klebsiella pneumoniae; details: for MIC: 18 h, 37 °C, mode of at least three experiments; for MIC for K. pneumoniae relative to E. coli: supplemented M9, 5 × 10^6 cells/mL
Protocol: […] […] Serially two-fold dilution (1:1) were performed across subsequent wells to a final volume of 50 μL. […] […] The plates were sealed with parafilm to minimize evaporation and incubated at 37 °C for 18 h. The minimum inhibitory concentration (MIC) was visually determined as the lowest peptide concentration in a well with no visible bacterial growth. Data are reported as the mode of at least three independent experiments.

Compound	Fluorescence Intensity (% of Control) (E. coli ATCC 25922)	Decrease in fluorescence compared to untreated bacteria (E. coli ATCC 25922)	Membrane permeabilization (% PI +cells) [1] [%]	MIC ([2]; Klebsiella pneumoniae, ATCC700603, supplemented M9 medium, 5 × 10^6 CFU/mL, visual) [µM]	MIC ([2]; Mueller Hinton, 2,5x10^5 CFU/mL) [µM]	MIC for K. pneumoniae relative to E. coli [2] [fold]	MIC ([2]; supplemented M9 medium, 5 × 10^6 CFU/mL, visual) [µM]
O=C(N[C@H](CO)[C@H](O)c1ccc([N+](=O)[O-])cc1)C(Cl)Cl [CHL, Chloramphenicol]	20 % of Control	80%					
CO[C@H]1/C=C/O[C@@]2(C)Oc3c(C)c(O)c4c(O)c(c(/C=N/N5CCN(C)CC5)c(O)c4c3C2=O)NC(=O)/C(C)=C\C=C\[C@H](C)[C@H](O)[C@@H](C)[C@@H](O)[C@@H](C)[C@H](OC(C)=O)[C@@H]1C [RIF, Rifampicin]	102 % of Control	did not affect fluorescence intensity	<1	16 (≈ 13.2 µg/mL)			
RRIRPRPPRLPRPRPR [Bac7(1–16)]	18 % of Control		<1		4	4	4
RRIRPRPPRLPRPRPRPLPFPRPGPRPIPRPLPFP [Bac7(1–35)]	14 % of Control		<1			4	
